Source: patent US20160145258A1, “Inhibitor Crystalline Form and Preparation Method and Use Thereof” (Hangzhou Pushai Pharmaceutical Technology Co., LTD., priority 2013, published 2016)
Entries after “also recorded” stand apart in the source; their conditions may differ.

Columns and labels:
Type in all cases: physicochemical
[1] = Competitive slurry 1 in nitromethane, solids characterized by XRPD; conditions: equal quantity (5 mg) of Form I, II, III, IV and VIII in nitromethane, room temperature, 7 days
From the text: (§1) The slurry method described in the present invention refers to stirring of a supersaturated solution of the sample (with undissolved solids) in various solvent systems for crystallization. Usually, the duration is 14 days.

[2] = Hygroscopicity by dynamic vapor sorption (DVS) isothermal sorption; conditions: for Weight change within 20%-80% RH range: DVS isothermal sorption, relative humidity 20%-80%; for Hygroscopicity in words (compared to Form I): from DVS weight change within 20-80% RH
Procedure: Dynamic vapor sorption (DVS) data were collected using TA Instruments Q500 TGA. The instrument control software was Thermal Advantage, and the analytical software was Universal Analysis. Usually, 1-10 mg of the sample was placed in a platinum pan, and the weight change of the sample during studies was recorded. The relative humidity was usually programed to change from 50% to 80% to 0% and then back to 50%, and an isothermal sorption plot could be generated. Depending on specific situations, different sorption and desorption procedures might be used. Hygroscopicity comparison: DVS isothermal sorption curves were used, and weight changes within the 20%-80% RH range were measured.

[3] = Competitive slurry 2 in mixed solvent of isopropanol and water, solids characterized by XRPD; conditions: equal quantity (5 mg) of Form VI and Form IX in 1 mL isopropanol and water (1:4, v/v), room temperature, 7 days
From the text: as §1

[4] = Competitive slurry of Form IX and Form I in mixed solvents of ethanol and water, solids characterized by XRPD; conditions: equal quantity (4 mg) of Form IX and Form I in 1 mL ethanol and water (1:1, 1:4, 1:5 and 1:10), room temperature, 7 days

| Compound | Competitive slurry 1: crystal form after slurry [1] | Weight change within 20%-80% RH range [2] | Hygroscopicity in words (compared to Form I) [2] | Competitive slurry 2: crystal form after slurry [3] | Competitive slurry: crystal form after slurry [4] | Hygroscopicity in words (compared to Form I) ([2]; listed as Form. IX) |
| --- | --- | --- | --- | --- | --- | --- |
| CC[C@H](Nc1ncnc2[nH]cnc12)c1nc2cccc(F)c2c(=O)n1-c1ccccc1 [Form VIII, 5-fluoro-3-phenyl-2-[(S)-1-(9H-purin-6-ylamino)-propyl]-3H-quinazoline-4-one] | transformed into Form III | 0.84% | less hygroscopic; also recorded: low hygroscopicity | – | – | – |
| CC[C@H](Nc1ncnc2[nH]cnc12)c1nc2cccc(F)c2c(=O)n1-c1ccccc1 [Form VI, 5-fluoro-3-phenyl-2-[(S)-1-(9H-purin-6-ylamino)-propyl]-3H-quinazoline-4-one] | – | 0.57% | lower hygroscopicity; also recorded: less hygroscopic | remained unchanged | – | – |
| CC[C@H](Nc1ncnc2[nH]cnc12)c1nc2cccc(F)c2c(=O)n1-c1ccccc1 [Form IV, 5-fluoro-3-phenyl-2-[(S)-1-(9H-purin-6-ylamino)-propyl]-3H-quinazoline-4-one] | transformed into Form III | 0.27% | less hygroscopic; also recorded: least hygroscopicity; also recorded: low hygroscopicity | – | – | – |
| CC[C@H](Nc1ncnc2[nH]cnc12)c1nc2cccc(F)c2c(=O)n1-c1ccccc1 [Form III, 5-fluoro-3-phenyl-2-[(S)-1-(9H-purin-6-ylamino)-propyl]-3H-quinazoline-4-one] | thermodynamically the most stable form; also recorded: III remained unchanged | 0.44% | less hygroscopic | – | – | – |
| CC[C@H](Nc1ncnc2[nH]cnc12)c1nc2cccc(F)c2c(=O)n1-c1ccccc1 [Form IX, 5-fluoro-3-phenyl-2-[(S)-1-(9H-purin-6-ylamino)-propyl]-3H-quinazoline-4-one] | – | 0.3% | less hygroscopic; also recorded: lower hygroscopicity; also recorded: least hygroscopicity | transformed into Form VI; also recorded: Form VI, while Form VI | more stable; also recorded: remained unchanged; also recorded: unchanged, while Form I | low hygroscopicity |
| CC[C@H](Nc1ncnc2[nH]cnc12)c1nc2cccc(F)c2c(=O)n1-c1ccccc1 [Form I, 5-fluoro-3-phenyl-2-[(S)-1-(9H-purin-6-ylamino)-propyl]-3H-quinazoline-4-one, reference compound] | transformed into Form III | 0.95% | – | – | transformed into Form IX | – |
| CC[C@H](Nc1ncnc2[nH]cnc12)c1nc2cccc(F)c2c(=O)n1-c1ccccc1 [Form II, 5-fluoro-3-phenyl-2-[(S)-1-(9H-purin-6-ylamino)-propyl]-3H-quinazoline-4-one] | transformed into Form III | 0.46% | less hygroscopic | – | – | – |
